Reference: ChEMBL document CHEMBL5360551, “Exploration of LPS2 agonist binding modes using the combination of a new hydrophobic scaffold and homology modeling” (Eur J Med Chem, 2023)
Activity calls are given as the source filed them. The calls are words filed in the database; no cut-off is given here.

Experiments:
Assay type in all cases: functional, cell-based
[1] = target: Putative P2Y purinoceptor 10 (Mus musculus, UniProt Q8BFU7); assay: Agonist activity at mouse LPS2/P2Y10 transfected in HEK293-A cells co-transfected with AP-TGFalpha assessed as AP-TGFalpha release by TGFalpha shedding assay; conditions: read-out: EC50
[2] = target: Putative P2Y purinoceptor 10 (Mus musculus) (UniProt Q8BFU7); assay: Agonist activity at mouse LPS2/P2Y10 transfected in HEK293-A cells co-transfected with AP-TGFalpha assessed as AP-TGFalpha release by TGFalpha shedding assay relative to LysoPS; conditions: filed as agonist
[3] = target: T1, Putative P2Y purinoceptor 10 (Homo sapiens, UniProt O00398); assay: Agonist activity at human LPS2/P2Y10 transfected in HEK293-A cells co-transfected with AP-TGFalpha assessed as AP-TGFalpha release by TGFalpha shedding assay relative to LysopPS; conditions: filed as agonist
[4] = target: T1, Putative P2Y purinoceptor 10; assay: Agonist activity at human LPS2/P2Y10 transfected in HEK293-A cells co-transfected with AP-TGFalpha assessed as AP-TGFalpha release by TGFalpha shedding assay; conditions: read-out: EC50
McA-RH7777 [5] = assay: Induction of actin stress fiber formation in rat McA-RH7777 cells expressing mouse LPS2 at 1 nM incubated for 30 mins by Alexa594-labelled phalloidin staining based fluorescence microscopic analysis
McA-RH7777 [6] = assay: Induction of actin stress fiber formation in rat McA-RH7777 cells expressing mouse LPS2 at 0.001 to 1 uM incubated for 30 mins by Alexa594-labelled phalloidin staining based fluorescence microscopic analysis; conditions: dose 0.001-1 µM
McA-RH7777 [7] = assay: Induction of actin stress fiber formation in rat McA-RH7777 cells expressing mouse LPS2 at 1 uM incubated for 30 mins by Alexa594-labelled phalloidin staining based fluorescence microscopic analysis

Chain of Putative P2Y purinoceptor 10 (Mus musculus) (Q8BFU7 whole entry): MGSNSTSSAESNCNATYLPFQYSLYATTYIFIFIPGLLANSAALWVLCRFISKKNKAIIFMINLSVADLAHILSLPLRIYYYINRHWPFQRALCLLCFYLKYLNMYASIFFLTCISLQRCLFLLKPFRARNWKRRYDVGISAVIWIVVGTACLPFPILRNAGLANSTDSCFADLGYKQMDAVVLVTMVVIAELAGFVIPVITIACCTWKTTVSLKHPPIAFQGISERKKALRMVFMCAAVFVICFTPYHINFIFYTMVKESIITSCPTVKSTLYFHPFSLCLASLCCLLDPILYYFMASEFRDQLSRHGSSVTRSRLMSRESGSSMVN
Chain of Putative P2Y purinoceptor 10 (Mus musculus, UniProt Q8BFU7) (Q8BFU7 whole entry): as above
T1 sequence (O00398 whole entry): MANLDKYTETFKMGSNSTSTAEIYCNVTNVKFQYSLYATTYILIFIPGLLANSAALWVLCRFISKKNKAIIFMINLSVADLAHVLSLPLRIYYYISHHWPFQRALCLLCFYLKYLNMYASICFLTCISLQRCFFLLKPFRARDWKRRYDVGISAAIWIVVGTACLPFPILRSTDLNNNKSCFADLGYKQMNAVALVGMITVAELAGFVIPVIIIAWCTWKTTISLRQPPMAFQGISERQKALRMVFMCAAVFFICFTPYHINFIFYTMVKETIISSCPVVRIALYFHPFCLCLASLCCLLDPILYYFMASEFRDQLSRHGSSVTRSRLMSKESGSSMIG

| SMILES | EC50 [1] | Emax [2] | Emax [3] | EC50 [4] | Activity (McA-RH7777 [5]) | Activity (McA-RH7777 [6]) | Activity (McA-RH7777 [7]) |
| --- | --- | --- | --- | --- | --- | --- | --- |
| N[C@@H](COP(=O)(O)OCCCOC(=O)CCc1ccccc1Oc1ccc(-c2cccc(-c3ccccc3)c2)cc1)C(=O)O | 1 nM | 113% | 125% | 22 nM | Active | – | – |
| N[C@@H](COP(=O)(O)OCCCOC(=O)CCc1ccccc1Oc1ccc(-c2ccc(C(=O)O)cc2)cc1)C(=O)O | 170 nM | 100% | – | – | – | inactive | – |
| N[C@@H](COP(=O)(O)OCCCOC(=O)CCc1ccccc1Oc1ccc(-c2cc(-c3ccccc3)cc(-c3ccccc3)c2)cc1)C(=O)O | 1.9 nM | 83% | 112% | 6.1 nM | Active | – | – |
| CCCCCCCC/C=C\CCCCCCCC(=O)OC[C@@H](O)COP(=O)(O)OC[C@H](N)C(=O)O | 21 nM | – | – | – | – | – | Active |
